Here are results for two compounds from patent US20050267124A1, “Pharmaceutical compositions comprising NEP-inhibitors, inhibitors of the endogenous producing system and PDEV inhibiitors” (Solvay Pharmaceuticals GmbH, priority 2004, published 2005).

For assay [1], the system named is Male Sprague-Dawley rats. Briefly: Big-ET-induced hypertension following intravenous bolus administration in rats. The format is in vivo, rat. The conditions noted are these: for Maximal Big-ET-induced increase in SAP: anaesthetised rats, i.v. bolus sildenafil 1 mg/kg and/or compound of Formula IV 10 μmol/kg, 0.5 nmol/kg Big-ET 8 min later, mean increase from baseline. How it is done: 1. Big-ET-Induced Hypertension Following Intravenous Bolus Administration in Rats
Male Sprague-Dawley rats (˜[…], fed a standard chow diet, fasted for 18 h prior to the experiments, with free access to drinking water) were anaesthetised with 1 ml/kg Rompun/Ketavet 1:1, and then transferred to servo-controlled, heated tables to maintain body temperature at 37° C. A pressure transducer (Statham) was connected to one carotid artery for measurement of arterial blood pressure. Both jugular veins were cannulated for compound and Big-ET-infusion (Big-ET=endogenous precursor of endothelin), respectively. After an equilibration period of 20 minutes (=min), the animals received either vehicle (10% arlatone G, 10% ethanol, 80% H2O), sildenafil (1 mg/kg), compound of Formula IV (10 μmol/kg), or a combination of sildenafil+compound of Formula IV intravenously (over 1 min in a total volume of 2 ml/kg body weight). 8 min later, 0.5 nmol/kg Big-ET was infused (over 1 min; Big-ET was from Bachem, Heidelberg). Systolic (SAP) and diastolic arterial blood pressures and heart rate were recorded every 5 min for the next 15 min.
The maximal pressor and bradycardic effects were typically reached within 5 min following Big-ET administration.
(§1) The results are expressed as mean±SEM of the maximal systolic blood pressure increase (from baseline) observed after the Big-ET challenge (n: number of animals). 2. Effect on Blood Pressure in Spontaneously Hypertensive Rats

In assay [2] the test system is spontaneously hypertensive rats (SHR). Briefly: Effect on blood pressure in spontaneously hypertensive rats (telemetry). The format is in vivo, rat. The conditions noted are these: i.v. sildenafil 3 mg/kg, alone or with compound of Formula IV 10 μmol/kg, change vs. baseline averaged over last 15 min of 30 min after treatment.
Excerpt: as §1
Male spontaneously hypertensive rats (=SHR, insulin resistant strain from Charles River; aged 6 months) were equipped with telemetry transmitters for continuous monitoring of blood pressure and heart rate. Telemetry transmitters for continuous monitoring of blood pressure, heart rate and locomotor activity (TA11PA-C40, Data Sciences, USA) were implanted intraabdominally under inhalative halothane anesthesia. A midline abdominal incision was made, and the abdominal aorta was visualized by removal of retroperitoneal fat and connective tissue. A ligature was placed caudal of the renal arteries, the aorta was punctured with a 22G needle, and the catheter was advanced into the aorta. The entry point was sealed with tissue adhesive (Vetbond®, 3M, USA), the ligature was removed, and the abdominal incision was closed. […]
On the day of the experiments, blood pressure was first monitored for 30 min under baseline (untreated) conditions before a group of animals received sildenafil (3 mg/kg), and another one sildenafil (3 mg/kg) combined with compound of Formula IV (10 μmol/kg) via injection into the caudal vein. Blood pressure was then measured for another 30 min. […]

With `O=C(O)CN1C(=O)C(NC(=O)C2(CC(CCc3ccccc3)C(=O)O)CCCC2)CCc2ccccc21` (stereo not drawn) [compound of Formula IV, 2-[1-(1-carboxymethyl-2-oxo-2,3,4,5-tetrahydro-1H-benzo[b]azepin-3-ylcarbamoyl)-cyclopentylmethyl]-4-phenyl-butyric acid], the “Maximal Big-ET-induced increase in SAP” value in assay [1] came to 43.0 mm Hg. In assay [1] (compound of Formula IV 10 μmol/kg i.v. with sildenafil 1 mg/kg, before Big-ET challenge), the “effect on the hypotensive action of sildenafil” value was “not reinforce the hypotensive action of sildenafil”.

Turning to `CCCc1nn(C)c2c(=O)[nH]c(-c3cc(S(=O)(=O)N4CCN(C)CC4)ccc3OCC)nc12` [Sildenafil, sildenafil], the “Average change in systolic blood pressure” value in assay [2] is reported as −10.5 mm Hg. Besides, in assay [1] (after i.v. sildenafil 1 mg/kg, until timepoint of Big-ET application), the “time for which the drop in blood pressure was stable” value is listed as “at least 8 min”. Besides, the “Maximal Big-ET-induced increase in SAP” value in assay [1] was determined as 42.6 mm Hg. Moreover, the “drop in systolic blood pressure as compared to baseline” value in assay [1] (immediately after i.v. administration, before the Big-ET challenge, sildenafil 1 mg/kg, compound of Formula IV 10 μmol/kg) is given as 15±3 mm Hg.
